Assays:
[1] = system: laboratory strain of B. subtilis; experiment: Minimum inhibitory concentration (MIC) assay; type: cell-based, Bacillus subtilis; settings: MHB, 10^5 CFU/well, peptide 0-50 μM, 37 °C, 20 h, OD600; average of n = 6 replicates from N = 3 biological experiments
Procedure: (§1) Figure 1 Minimum inhibitory concentrations (MICs) for the present peptide library against three clinical isolates of MDR P. aeruginosa and a laboratory strain of B. subtilis. Increasing concentrations of peptides were independently incubated with bacterial cells for 20 h. MIC was calculated based on bacterial growth in an untreated control and in 1% Triton. Data represent the average from n = 6 replicates from N = 3 biological experiments performed on different days; error bars depict the standard error of the mean. Asterisk denotes MIC values beyond the highest tested concentration (50 μM). TEXT PRINTED IN THE PICTURE: Ponericin W1: Isolate 004B1-3 MIC (μM): 1.17; Isolate 035B7-1 MIC (μM): 2.86; Isolate 014B2-1 MIC (μM): 4.68; B. subtilis MIC (μM): 0.65 | PonAmp: Isolate 004B1-3 MIC (μM): 1.56; Isolate 035B7-1 MIC (μM): 2.60; Isolate 014B2-1 MIC (μM): 3.12; B. subtilis MIC (μM): 0.52 | PonN: Isolate 004B1-3 MIC (μM): 1.56; Isolate 035B7-1 MIC (μM): 2.60; Isolate 014B2-1 MIC (μM): 5.20; B. subtilis MIC (μM): 1.56 | PonC: Isolate 004B1-3 MIC (μM): 1.30; Isolate 035B7-1 MIC (μM): 1.56; Isolate 014B2-1 MIC (μM): 2.86; B. subtilis MIC (μM): 1.30 | PonAmp 2A: Isolate 004B1-3 MIC (μM): 11.46; Isolate 035B7-1 MIC (μM): 50; Isolate 014B2-1 MIC (μM): 50; B. subtilis MIC (μM): 0.85 | PonN 2A: Isolate 004B1-3 MIC (μM): 1.82; Isolate 035B7-1 MIC (μM): 1.82; Isolate 014B2-1 MIC (μM): 5.20; B. subtilis MIC (μM): 2.08 | PonC 2A: Isolate 004B1-3 MIC (μM): 2.08; Isolate 035B7-1 MIC (μM): 3.64; Isolate 014B2-1 MIC (μM): 6.25; B. subtilis MIC (μM): 1.04 | PonAmp 3A: B. subtilis MIC (μM): 0.78 | PonN 3A: Isolate 004B1-3 MIC (μM): 4.69; Isolate 035B7-1 MIC (μM): 16.67; Isolate 014B2-1 MIC (μM): 23; B. subtilis MIC (μM): 8.30 | PonC 3A: Isolate 004B1-3 MIC (μM): 5.73; Isolate 035B7-1 MIC (μM): 33.33; Isolate 014B2-1 MIC (μM): 50; B. subtilis MIC (μM): 1.56 | PonAmp 4A: B. subtilis MIC (μM): 3.12 | PonN 4A: B. subtilis MIC (μM): 12.5 | PonC 4A: B. subtilis MIC (μM): 10.42
(§2) Three clinical isolates of MDR P. aeruginosa were previously obtained from CF patients with chronic infection at the Hospital for Sick Children [Research Ethics Board (REB) #1000019444] (Toronto, Canada) and selected for use in this work along with a laboratory strain of B. subtilis. Serial dilutions of peptides (10 μL) were prepared to achieve concentrations from 50 to 0 μM on a sterile 96-well clear bottom plate. Cells were resuspended in Mueller − Hinton Broth (MHB) and added at 10^5 CFU/well to achieve a final volume of 100 μL. Peptide and bacteria were allowed to incubate at 37 °C for 20 h. OD600 was measured at the end of the incubation period. Reports of MIC are background subtracted from an MHB-only control.

[2] = system: MDR P. aeruginosa clinical isolate 004B1-3; experiment: Minimum inhibitory concentration (MIC) assay; type: cell-based, Pseudomonas aeruginosa; settings: MHB, 10^5 CFU/well, peptide 0-50 μM, 37 °C, 20 h, OD600; average of n = 6 replicates from N = 3 biological experiments; asterisk = beyond 50 μM
Procedure: as §1
(§3) Clinical isolates of P. aeruginosa [Research Ethics Board (REB) #1000019444] were obtained with informed consent from CF patients with chronic infection followed at the Hospital for Sick Children (Toronto, Canada)[66]. Consent was obtained from a parent or legal guardian if not of age. All methods were performed in accordance with the relevant guidelines and regulations for research involving human subjects at the Hospital for Sick Children. Antimicrobial susceptibility testing was performed as per the Clinical Laboratory Standards Institute (CLSI)[67].
as §2

[3] = system: MDR P. aeruginosa clinical isolate 014B2-1; experiment: Minimum inhibitory concentration (MIC) assay; type: cell-based, Pseudomonas aeruginosa; settings: MHB, 10^5 CFU/well, peptide 0-50 μM, 37 °C, 20 h, OD600; average of n = 6 replicates from N = 3 biological experiments; asterisk = beyond 50 μM
Procedure: as §1, §3, §2

[4] = system: MDR P. aeruginosa clinical isolate 035B7-1; experiment: Minimum inhibitory concentration (MIC) assay; type: cell-based, Pseudomonas aeruginosa; settings: MHB, 10^5 CFU/well, peptide 0-50 μM, 37 °C, 20 h, OD600; average of n = 6 replicates from N = 3 biological experiments; asterisk = beyond 50 μM
Procedure: as §1, §3, §2

[5] = system: MDR isolates of P. aeruginosa; type: cell-based, Pseudomonas aeruginosa; settings: for average MIC against MDR P. aeruginosa isolates: average over the clinical isolates
Excerpt: We began our investigations by testing the antimicrobial efficacy of our peptide library against P. aeruginosa, an opportunistic gram-negative bacterium found in patients with cystic fibrosis (CF)[44],[45]. MDR isolates of P. aeruginosa obtained from chronically infected CF patients were independently challenged with the peptide library using a minimum inhibitory concentration assay (MIC, defined as the lowest drug concentration required to inhibit bacterial growth). […] A similar trend is observed among the 3A analogs. At four Leu-to-Ala substitutions, activity is universally lost as the sequences no longer meet the minimum hydrophobicity threshold for spontaneous membrane insertion.
Figure 1 Minimum inhibitory concentrations (MICs) for the present peptide library against three clinical isolates of MDR P. aeruginosa and a laboratory strain of B. subtilis. Increasing concentrations of peptides were independently incubated with bacterial cells for 20 h. MIC was calculated based on bacterial growth in an untreated control and in 1% Triton. Data represent the average from n = 6 replicates from N = 3 biological experiments performed on different days; error bars depict the standard error of the mean. Asterisk denotes MIC values beyond the highest tested concentration (50 μM). […]
Three clinical isolates of MDR P. aeruginosa were previously obtained from CF patients with chronic infection at the Hospital for Sick Children [Research Ethics Board (REB) #1000019444] […] OD600 was measured at the end of the incubation period. […]

[6] = system: LPS from P. aeruginosa 10; experiment: Dansyl-polymyxin (DPX) displacement assay; type: binding, Pseudomonas aeruginosa; settings: 3 μg/mL LPS saturated by 2.5 μM DPX, peptide added in 1 μM increments up to 10 μM, 10 mM Tris 10 mM NaCl pH 7.4; ex 340 / em 485 nm; n = 3
Excerpt: We then sought to evaluate whether the relative trends in antimicrobial efficacy observed between Lys-clustered versus helical amphipathic sequences against gram-negative bacteria correlate to their degree of interaction with the OM. In doing so, we tested the binding affinity of our peptide library to LPS using a Dansyl-Polymyxin (DPX) displacement assay. DPX is a fluorescently-tagged derivative of Polymyxin B that highly associates with polyanionic sites on LPS[46]. Dansyl fluorescence reaches a maximum when surrounded by a hydrophobic environment (ex. lipid A moiety of LPS), thereby enabling us to track bound and unbound states of the LPS-DPX complex. First, we empirically determined the concentration of DPX required to completely saturate a set quantity of LPS in solution (Fig. 2). Upon identifying the saturation threshold, we assessed the ability of our peptide library to outcompete for LPS binding by displacing bound DPX. […] High sequence hydrophobicity is observed to supplement peptide propensity to displace DPX as the binding affinity of PonN and PonC to LPS progressively weakens with increasing Leu-to-Ala substitutions (Fig. 3b–d).
Lyophilized stocks of LPS from P. aeruginosa 10 (#L9143) and Dansyl-labelled polymyxin B (DPX) suspended in water (#SBR00029) were purchased from Sigma. 1 mg/mL LPS was prepared in water and stored at 4 °C until use. As described in detail elsewhere, saturation of the LPS-DPX complex was first determined on a Photon Technology International fluorometer using a 1 cm cuvette. Stepwise additions of DPX (in 0.25 μM increments up to 5 μM) was added to 3 μg/mL LPS suspended in 10 mM Tris 10 mM NaCl buffer at pH 7.4. DPX fluorescence was excited at 340 nm (2 nm slit width) and emission was recorded at 485 nm (5 nm slit width).
To measure DPX displacement, peptides were independently added at 1 μM increments (up to 10 μM) to preparations containing 3 μg/mL LPS saturated by 2.5 μM DPX. DPX fluorescence was read immediately upon peptide addition. Drops in fluorescence are interpreted as the removal of DPX from LPS due to competitive binding by peptide.

[7] = in vitro dye release; cited from earlier work
Excerpt: In contrast, Lys-clustered PonN and PonC have been previously found to exclusively adopt random coils when exposed to liposomes composed of an approximate 3:1 ratio of PE:PG phospholipids, representative of the bacterial IM[37]. The latter configuration ostensibly deters peptide capacity for pore formation and/or carpeted assembly compared to helical amphipathic constructs such as PonAmp, which continues to display high helical propensity at both membrane interfaces. The comparatively shallow and/or transient nature of interaction between Lys-clustered constructs and the IM interface was f ...

human red blood cells = settings: up to 50 μM; cited from earlier work
Excerpt: In designing the Ponericin peptide library, our principal goal is to gauge systematically how the relative distribution of charged residues influences peptide-membrane interactions. As well, hydrophobicity is of particular interest to our investigations as earlier studies on the Ponericin W1 library reveal the highly toxic nature of native Ponericin W1 against mammalian red blood cells. Thus, stepwise Leu-to-Ala substitutions (up to four substitutions) were subsequently applied to each parent analog to simultaneously evaluate the contribution of overall sequence hydrophobicity. All peptide ...

Row | Substance | MIC, B. subtilis [1] [µM] | MIC, Isolate 004B1-3 [2] [µM] | MIC, Isolate 014B2-1 [3] [µM] | MIC, Isolate 035B7-1 [4] [µM] | average MIC against MDR P. aeruginosa isolates [5] | Displacement of DPX from LPS (change in DPX fluorescence) [6] | Rupture of liposome mimetics of the bacterial IM (dye release) [7] | MIC against MDR P. aeruginosa isolates ([5]; three clinical isolates from CF patients, isolate not specified, 20 h, highest tested 50 μM) [µM] | Toxicity against mammalian red blood cells (human red blood cells)
1 | H-KKKKKKWAGSAAIGAALPSVVGAFQ-NH2 [PonN 4A] | 12.5 | – | – | – | – | – | – | – | –
2 | H-KKKKKKWAGSAAIGAALPSVVGLFQ-NH2 [PonN 3A] | 8.30 | 4.69 | 23 | 16.67 | – | – | – | – | –
3 | H-KKKKKKWAGSAAIGALLPSVVGLFQ-NH2 [PonN 2A] | 2.08 | 1.82 | 5.20 | 1.82 | ~ 3 μM | – | – | – | –
4 | H-KKKKKKWLGSALIGALLPSVVGLFQ-NH2 [PonN] | 1.56 | 1.56 | 5.20 | 2.60 | – | highly interrupt the LPS-DPX complex | more gradually | – | –
5 | H-WAGSAAIGAALPSVVGAFQKKKKKK-NH2 [PonC 4A] | 10.42 | – | – | – | – | – | – | – | –
6 | H-WAGSAAIGAALPSVVGLFQKKKKKK-NH2 [PonC 3A] | 1.56 | 5.73 | 50 | 33.33 | – | – | – | – | –
7 | H-WAGSAAIGALLPSVVGLFQKKKKKK-NH2 [PonC 2A] | 1.04 | 2.08 | 6.25 | 3.64 | ~ 4 μM | – | – | – | –
8 | H-WAKKAAKIGAKALPSVVKAFKGSGQ-NH2 [PonAmp 4A] | 3.12 | – | – | – | – | – | – | – | –
9 | H-WAKKAAKIGAKALPSVVKLFKGSGQ-NH2 [PonAmp 3A] | 0.78 | – | – | – | – | – | – | – | –
10 | H-WAKKAAKIGAKLLPSVVKLFKGSGQ-NH2 [PonAmp 2A] | 0.85 | 11.46 | 50 | 50 | – | – | – | 50 | –
11 | H-WLGSALIGALLPSVVGLFQKKKKKK-NH2 [PonC] | 1.30 | 1.30 | 2.86 | 1.56 | – | highly interrupt the LPS-DPX complex | more gradually | – | –
12 | H-WLGSALKIGAKLLPSVVGLFKKKKQ-NH2 [Ponericin W1, reference compound] | 0.65 | 1.17 | 4.68 | 2.86 | – | negligible change in fluorescence | – | – | highly toxic
13 | H-WLKKALKIGAKLLPSVVKLFKGSGQ-NH2 [PonAmp] | 0.52 | 1.56 | 3.12 | 2.60 | – | negligible change in fluorescence | ruptured instantaneously | – | –

Reference: publication PMC10803810, “Interaction of designed cationic antimicrobial peptides with the outer membrane of gram-negative bacteria” (Scientific Reports, 2024)
